Test results reported in patent US5985927A, “Medicaments for the selective treatment of tumor tissues” (priority 1995, dated 1999).

How the values were obtained:
[1] = system: small-cell lung tumor (LXFS 650); assay: tumor growth of implanted small-cell lung tumor (LXFS 650) in nude mice; assay type: in vivo; settings: tail vein injection, 4 consecutive days, FIG. 4
Excerpt: The three compounds mentioned above by way of example have likewise been investigated for their in vivo suitability in an animal model. Nude mice are chosen as animal model, into which it is possible to implant various human tumors. This makes it possible to investigate the therapeutic efficacy of the substances under defined reproducible conditions. An animal experiment of this type is documented in FIG. 4. A routine method which is conventional in the prior art and is outlined below is used.
A small-cell lung tumor (LXFS 650) whose extra-cellular pH of about 6.9 is close to the physiological pH of 7.2-7.3 is implanted into the nude mice. The therapeutic substance used is, as in FIG. 1, 2,4-di-hydroxybenzoic acid (substance (1)). 3-4 weeks after implantation of the tumor, 15 mice with tumors 5-7 mm in diameter are divided into 3 groups: the first group of 5 serves as control group without therapy, and the substance (1) is injected into the tail vein in a concentration of 200 mg/kg/day in the second group of 5 and in a concentration of 400 mg/kg/day in the third group of 5. In the present experiment, 4 injections into the tail vein were carried out on 4 consecutive days. […] The tumor volumes were determined on days 7, 10, 14 and 17.

[2] = system: mononuclear blood cells (MNCs); assay: toxicity on mononuclear blood cells (MNCs) as a function of extracellular pH (FACScan and XTT-ELISA); assay type: cell-based; settings: extracellular pH in the range from 7.2 to 7.4; FIG. 1B
Excerpt: A skilled person is able to find, with the aid of the above information and using his general expert knowledge and a few simple tests, as described hereinafter, compounds which are used according to the invention as medicinal substance. Thus, the toxicity properties of a substance which comes under consideration can be determined experimentally by the FACScan and the XTT-ELISA techniques. Both methods are known in the prior art. It is possible to investigate suspended cancer cell lines such as, for example, K-562, Raji or Daudi by both techniques, but adherent cancer cell lines only by the XTT-ELISA technique. FACS and XTT techniques can likewise be used to investigate the toxicity of the substances for mononuclear blood cells (MNCs). The proportion of dead cells is detected in the FACS technique by propidium iodide staining, and in the XTT method by conversion of XTT into formazan by mitochondrial dehydrogenase. The methods are described, for example, in Tumor-Biologie 1994, 15, 304 and in the biochemistry catalog of Boehringer Mannheim, Germany 0392.C 73.3.1465554 1 CB, Cat. No. 1465 015. […]

K-562 cancer cells = assay: toxicity effect on K-562 cancer cells as a function of extracellular pH (FACScan and XTT-ELISA); assay type: cell-based
Excerpt: Thus, the toxicity properties of a substance which comes under consideration can be determined experimentally by the FACScan and the XTT-ELISA techniques. Both methods are known in the prior art. […] FACS and XTT techniques can likewise be used to investigate the toxicity of the substances for mononuclear blood cells (MNCs). The proportion of dead cells is detected in the FACS technique by propidium iodide staining, and in the XTT method by conversion of XTT into formazan by mitochondrial dehydrogenase.
To detect pH-sensitive toxic substances, selected substances are allowed to act at various predetermined pH values, for example at pH 5.5, 6.0, 6.5, 7.0 and 7.5, both on tumor cell lines and on MNCs, for example for 4 hours and 24 hours, in order thereafter to measure the number of killed cancer cells or MNCs. Control measurements without addition of pH-sensitive substances are carried out in parallel with this.
The activity of the 4-succinic ester of 2,4-dihydroxybenzoic acid, of trans-3,4-difluorocinnamic acid and of 2,4-dinitrophenol has been investigated. Used for this purpose were the methods of the FACScan and ELISA techniques described above. […] FIG. 2A depicts the effect of trans-3,4-difluorocinnamic acid on K-562 cells. […] FIG. 2B depicts the effect of the same compound on MNCs.

[3] = K-562 cancer cells, extracellular pH, FIG. 1A

O=C(O)c1ccc(O)cc1O [substance (1), 2,4-di-hydroxybenzoic acid]
effect on tumor growth ([1]; 200 mg/kg/day, only on day 10): onset of a slight effect only on day 10 | tumor growth ([1]; 400 mg/kg/day, after day 7 and up to day 10): cessation of growth | tumor growth after end of therapy ([1]; 400 mg/kg/day, after day 10, therapy not continued further): the tumor starts to grow again

O=C(O)CCC(=O)Oc1ccc(C(=O)O)c(O)c1 [4-succinic ester of 2,4-dihydroxybenzoic acid]
toxicity on MNCs [2]: Negligible toxicity | pH of maximum toxicity effect on K-562 cells (K-562 cancer cells; [3]): 5.7 | pH of onset of toxicity effect on K-562 cells (K-562 cancer cells; [3]): ~6.5

O=C(O)/C=C/c1ccc(F)c(F)c1 [trans-3,4-difluorocinnamic acid]
extracellular pH until which the cytotoxic effect on K-562 cells is negligible (K-562 cancer cells; cytotoxic effect negligible until the extracellular pH is below this value, K-562 cells, FIG. 2A): below 6.5
